# Assays:
# Echinochloa oryzicola [1] = experiment: Herbicidal activity against Echinochloa oryzicola at 100 g a.i/ha treated at emergence stage measured after 26 days by outdoor concrete pot test; assay type: functional
# Echinochloa oryzicola [2] = experiment: Herbicidal activity against Echinochloa oryzicola at 200 g a.i/ha treated at emergence stage measured after 26 days by outdoor concrete pot test; assay type: functional
# Oryza sativa [3] = experiment: Phytotoxicity against Oryza sativa cv. Kinuhikari (rice) planted at 3 cm depth measured after 20 to 25 days; assay type: organism-based; conditions: in vivo
# [4] = test system: Schoenoplectiella juncoides; experiment: Herbicidal activity against Schoenoplectiella juncoides under greenhouse condition compound treated at 0.5 leaf stage measured after 14 to 20 days; assay type: functional
# Echinochloa oryzicola [5] = experiment: Herbicidal activity against Echinochloa oryzicola under greenhouse condition compound treated at 2.5 leaf stage measured after 14 to 20 days; assay type: functional
# Echinochloa oryzicola [6] = experiment: Herbicidal activity against Echinochloa oryzicola under greenhouse condition compound treated at emergence stage measured after 14 to 20 days; assay type: functional
# Elatine triandra [7] = experiment: Herbicidal activity against Elatine triandra at 100 g a.i/ha treated at emergence stage measured after 26 days by outdoor concrete pot test; assay type: functional
# Elatine triandra [8] = experiment: Herbicidal activity against Elatine triandra at 200 g a.i/ha treated at emergence stage measured after 26 days by outdoor concrete pot test; assay type: functional
# Rotala indica [9] = experiment: Herbicidal activity against Rotala indica at 200 g a.i/ha treated at 2.3-leaf stage measured after 26 days by outdoor concrete pot test; assay type: functional
# Rotala indica [10] = experiment: Herbicidal activity against Rotala indica at 300 g a.i/ha treated at 2.3-leaf stage measured after 26 days by outdoor concrete pot test; assay type: functional
# Rotala indica [11] = experiment: Herbicidal activity against Rotala indica at 100 g a.i/ha treated at 1.6-leaf stage measured after 26 days by outdoor concrete pot test; assay type: functional
# Rotala indica [12] = experiment: Herbicidal activity against Rotala indica at 200 g a.i/ha treated at 1.6-leaf stage measured after 26 days by outdoor concrete pot test; assay type: functional
# Rotala indica [13] = experiment: Herbicidal activity against Rotala indica at 100 g a.i/ha treated at emergence stage measured after 26 days by outdoor concrete pot test; assay type: functional
# Rotala indica [14] = experiment: Herbicidal activity against Rotala indica at 200 g a.i/ha treated at emergence stage measured after 26 days by outdoor concrete pot test; assay type: functional
# Lindernia procumbens [15] = experiment: Herbicidal activity against Lindernia procumbens at 200 g a.i/ha treated at 2.3-leaf stage measured after 26 days by outdoor concrete pot test; assay type: functional
# Lindernia procumbens [16] = experiment: Herbicidal activity against Lindernia procumbens at 300 g a.i/ha treated at 2.3-leaf stage measured after 26 days by outdoor concrete pot test; assay type: functional
# Lindernia procumbens [17] = experiment: Herbicidal activity against Lindernia procumbens at 100 g a.i/ha treated at 1.6-leaf stage measured after 26 days by outdoor concrete pot test; assay type: functional
# Lindernia procumbens [18] = experiment: Herbicidal activity against Lindernia procumbens at 200 g a.i/ha treated at 1.6-leaf stage measured after 26 days by outdoor concrete pot test; assay type: functional
# Lindernia procumbens [19] = experiment: Herbicidal activity against Lindernia procumbens at 100 g a.i/ha treated at emergence stage measured after 26 days by outdoor concrete pot test; assay type: functional
# Lindernia procumbens [20] = experiment: Herbicidal activity against Lindernia procumbens at 200 g a.i/ha treated at emergence stage measured after 26 days by outdoor concrete pot test; assay type: functional
# Pontederia vaginalis [21] = experiment: Herbicidal activity against Monochoria vaginalis at 200 g a.i/ha treated at 2.3-leaf stage measured after 26 days by outdoor concrete pot test; assay type: functional
# Pontederia vaginalis [22] = experiment: Herbicidal activity against Monochoria vaginalis at 300 g a.i/ha treated at 2.3-leaf stage measured after 26 days by outdoor concrete pot test; assay type: functional
# Pontederia vaginalis [23] = experiment: Herbicidal activity against Monochoria vaginalis at 100 g a.i/ha treated at 1.6-leaf stage measured after 26 days by outdoor concrete pot test; assay type: functional
# Pontederia vaginalis [24] = experiment: Herbicidal activity against Monochoria vaginalis at 200 g a.i/ha treated at 1.6-leaf stage measured after 26 days by outdoor concrete pot test; assay type: functional
# Pontederia vaginalis [25] = experiment: Herbicidal activity against Monochoria vaginalis at 100 g a.i/ha treated at emergence stage measured after 26 days by outdoor concrete pot test; assay type: functional
# Echinochloa oryzicola [26] = experiment: Herbicidal activity against Echinochloa oryzicola at 300 g a.i/ha treated at 2.3-leaf stage measured after 26 days by outdoor concrete pot test; assay type: functional
# Echinochloa oryzicola [27] = experiment: Herbicidal activity against Echinochloa oryzicola at 200 g a.i/ha treated at 2.3-leaf stage measured after 26 days by outdoor concrete pot test; assay type: functional
# Echinochloa oryzicola [28] = experiment: Herbicidal activity against Echinochloa oryzicola at 100 g a.i/ha treated at 1.6-leaf stage measured after 26 days by outdoor concrete pot test; assay type: functional
# Echinochloa oryzicola [29] = experiment: Herbicidal activity against Echinochloa oryzicola at 200 g a.i/ha treated at 1.6-leaf stage measured after 26 days by outdoor concrete pot test; assay type: functional
# Oryza sativa [30] = experiment: Phytotoxicity against Oryza sativa cv. Kinuhikari (rice) at 200 g a.i/ha treated at 1.6-leaf stage measured after 26 days by outdoor concrete pot test; assay type: organism-based; conditions: in vivo, other, 624 h
# Oryza sativa [31] = experiment: Phytotoxicity against Oryza sativa cv. Kinuhikari (rice) at 100 g a.i/ha treated at emergence stage measured after 26 days by outdoor concrete pot test; assay type: organism-based; conditions: in vivo, other, 624 h
# Oryza sativa [32] = experiment: Phytotoxicity against Oryza sativa cv. Kinuhikari (rice) at 200 g a.i/ha treated at emergence stage measured after 26 days by outdoor concrete pot test; assay type: organism-based; conditions: in vivo, other, 624 h
# Elatine triandra [33] = experiment: Herbicidal activity against Elatine triandra at 200 g a.i/ha treated at 2.3-leaf stage measured after 26 days by outdoor concrete pot test; assay type: functional
# Elatine triandra [34] = experiment: Herbicidal activity against Elatine triandra at 300 g a.i/ha treated at 2.3-leaf stage measured after 26 days by outdoor concrete pot test; assay type: functional
# Elatine triandra [35] = experiment: Herbicidal activity against Elatine triandra at 100 g a.i/ha treated at 1.6-leaf stage measured after 26 days by outdoor concrete pot test; assay type: functional
# Elatine triandra [36] = experiment: Herbicidal activity against Elatine triandra at 200 g a.i/ha treated at 1.6-leaf stage measured after 26 days by outdoor concrete pot test; assay type: functional
# Pontederia vaginalis [37] = experiment: Herbicidal activity against Monochoria vaginalis at 200 g a.i/ha treated at emergence stage measured after 26 days by outdoor concrete pot test; assay type: functional
# [38] = test system: Schoenoplectiella juncoides; experiment: Herbicidal activity against Schoenoplectiella juncoides at 200 g a.i/ha treated at 2.3-leaf stage measured after 26 days by outdoor concrete pot test; assay type: functional
# [39] = test system: Schoenoplectiella juncoides; experiment: Herbicidal activity against Schoenoplectiella juncoides at 300 g a.i/ha treated at 2.3-leaf stage measured after 26 days by outdoor concrete pot test; assay type: functional
# [40] = test system: Schoenoplectiella juncoides; experiment: Herbicidal activity against Schoenoplectiella juncoides at 100 g a.i/ha treated at 1.6-leaf stage measured after 26 days by outdoor concrete pot test; assay type: functional
# [41] = test system: Schoenoplectiella juncoides; experiment: Herbicidal activity against Schoenoplectiella juncoides at 200 g a.i/ha treated at 1.6-leaf stage measured after 26 days by outdoor concrete pot test; assay type: functional
# [42] = test system: Schoenoplectiella juncoides; experiment: Herbicidal activity against Schoenoplectiella juncoides at 100 g a.i/ha treated at emergence stage measured after 26 days by outdoor concrete pot test; assay type: functional
# [43] = test system: Schoenoplectiella juncoides; experiment: Herbicidal activity against Schoenoplectiella juncoides at 200 g a.i/ha treated at emergence stage measured after 26 days by outdoor concrete pot test; assay type: functional
# Elatine triandra [44] = experiment: Herbicidal activity against Elatine triandra compound treated at 1 to 2.2-leaf stage measured after 26 days by outdoor concrete pot test; assay type: functional
# Oryza sativa [45] = experiment: Phytotoxicity against Oryza sativa cv. Kinuhikari (rice) planted at 3 cm depth measured after 26 days; assay type: organism-based; conditions: in vivo, 624 h
# Rotala indica [46] = experiment: Herbicidal activity against Rotala indica compound treated at 1 to 2.2-leaf stage measured after 26 days by outdoor concrete pot test; assay type: functional
# Lindernia procumbens [47] = experiment: Herbicidal activity against Lindernia procumbens compound treated at 1 to 2.2-leaf stage measured after 26 days by outdoor concrete pot test; assay type: functional
# Echinochloa oryzicola [48] = experiment: Herbicidal activity against Echinochloa oryzicola compound treated at 2.5-leaf stage measured after 26 days by outdoor concrete pot test; assay type: functional
# [49] = test system: Schoenoplectiella juncoides; experiment: Herbicidal activity against Schoenoplectiella juncoides compound treated at 0.5-leaf stage measured after 26 days by outdoor concrete pot test; assay type: functional
# Echinochloa oryzicola [50] = experiment: Herbicidal activity against Echinochloa oryzicola compound treated at emergence stage measured after 26 days by outdoor concrete pot test; assay type: functional
# Oryza sativa [51] = experiment: Phytotoxicity against Oryza sativa cv. Kinuhikari (rice) at 200 g a.i/ha treated at 2.3-leaf stage measured after 26 days by outdoor concrete pot test; assay type: organism-based; conditions: in vivo, other, 624 h
# Oryza sativa [52] = experiment: Phytotoxicity against Oryza sativa cv. Kinuhikari (rice) at 300 g a.i/ha treated at 2.3-leaf stage measured after 26 days by outdoor concrete pot test; assay type: organism-based; conditions: in vivo, other, 624 h
# Oryza sativa [53] = experiment: Phytotoxicity against Oryza sativa cv. Kinuhikari (rice) at 100 g a.i/ha treated at 1.6-leaf stage measured after 26 days by outdoor concrete pot test; assay type: organism-based; conditions: in vivo, other, 624 h
compound,measurement,setting,value
CN(C)C(=O)OC(c1cnccc1C(F)(F)F)c1cccc2ccccc12 (racemic),Efficacy,Echinochloa oryzicola [1],100%
same,Efficacy,Echinochloa oryzicola [2],100%
same,ED20,Oryza sativa [3],2000 gAi/ha
same,ED80,[4],250 gAi/ha
same,ED80,Echinochloa oryzicola [5],125 gAi/ha
same,ED80,Echinochloa oryzicola [6],31 gAi/ha
same,Efficacy,Elatine triandra [7],100%
same,Efficacy,Elatine triandra [8],100%
same,Efficacy,Rotala indica [9],100%
same,Efficacy,Rotala indica [10],100%
same,Efficacy,Rotala indica [11],100%
same,Efficacy,Rotala indica [12],100%
same,Efficacy,Rotala indica [13],100%
same,Efficacy,Rotala indica [14],100%
same,Efficacy,Lindernia procumbens [15],100%
same,Efficacy,Lindernia procumbens [16],100%
same,Efficacy,Lindernia procumbens [17],100%
same,Efficacy,Lindernia procumbens [18],100%
same,Efficacy,Lindernia procumbens [19],100%
same,Efficacy,Lindernia procumbens [20],100%
same,Efficacy,Pontederia vaginalis [21],99%
same,Efficacy,Pontederia vaginalis [22],100%
same,Efficacy,Pontederia vaginalis [23],89%
same,Efficacy,Pontederia vaginalis [24],100%
same,Efficacy,Pontederia vaginalis [25],100%
same,Efficacy,Echinochloa oryzicola [26],95%
same,Efficacy,Echinochloa oryzicola [27],95%
same,Efficacy,Echinochloa oryzicola [28],95%
same,Efficacy,Echinochloa oryzicola [29],95%
same,Efficacy,Oryza sativa [30],0%
same,Efficacy,Oryza sativa [31],11%
same,Efficacy,Oryza sativa [32],16%
same,Efficacy,Elatine triandra [33],100%
same,Efficacy,Elatine triandra [34],100%
same,Efficacy,Elatine triandra [35],100%
same,Efficacy,Elatine triandra [36],100%
same,Efficacy,Pontederia vaginalis [37],100%
same,Efficacy,[38],0%
same,Efficacy,[39],0%
same,Efficacy,[40],0%
same,Efficacy,[41],0%
same,Efficacy,[42],0%
same,Efficacy,[43],0%
same,ED80,Elatine triandra [44],100 gAi/ha
same,ED20,Oryza sativa [45],2000 gAi/ha
same,ED80,Rotala indica [46],100 gAi/ha
same,ED80,Lindernia procumbens [47],100 gAi/ha
same,ED80,Echinochloa oryzicola [48],125 gAi/ha
same,ED80,[49],250 gAi/ha
same,ED80,Echinochloa oryzicola [50],31 gAi/ha
same,Efficacy,Oryza sativa [51],0%
same,Efficacy,Oryza sativa [52],6%
same,Efficacy,Oryza sativa [53],0%
COc1ccncc1C(OC(=O)N(C)C)c1cccc2ccccc12 (stereo not drawn),ED20,Oryza sativa [3],> 2000 gAi/ha
same,ED80,[4],>1000 gAi/ha
same,ED80,Echinochloa oryzicola [5],>1000 gAi/ha
same,ED80,Echinochloa oryzicola [6],>1000 gAi/ha
CN(C)C(=O)OC(c1cnccc1Br)c1cccc2ccccc12 (stereo not drawn),ED20,Oryza sativa [3],2000 gAi/ha
same,ED80,[4],250 gAi/ha
same,ED80,Echinochloa oryzicola [5],250 gAi/ha
same,ED80,Echinochloa oryzicola [6],31 gAi/ha
Cc1ccncc1C(OC(=O)N(C)C)c1cccc2ccccc12 (stereo not drawn),ED20,Oryza sativa [3],2000 gAi/ha
same,ED80,[4],>1000 gAi/ha
same,ED80,Echinochloa oryzicola [6],500 gAi/ha
CN(C)C(=O)OC(c1cnccc1C(F)(F)F)c1ccc2c3c(cccc13)CC2 (stereo not drawn),ED20,Oryza sativa [3],> 2000 gAi/ha
same,ED80,[4],>1000 gAi/ha
same,ED80,Echinochloa oryzicola [5],>500 gAi/ha
same,ED80,Echinochloa oryzicola [6],500 gAi/ha

# From ChEMBL document CHEMBL3045041, “Synthesis of novel aryl(4-substituted pyridin-3-yl)methyl carbamates and their herbicidal activity” (J Pestic Sci, 2012)
